# Where “and” joins values, the source holds several entries; their conditions need not be identical. Equal values may be shown once. Read-outs that look alike come from different tables or passages of the source.
# Legend:
# [1] = tested on: P. hermaphrodita complex I; assay: In vitro complex I activity assay, P. hermaphrodita mitochondria; type: biochemical, Phasmarhabditis hermaphrodita; details: for in vitro complex I activity relative to solvent control: P. hermaphrodita mitochondria; for IC50: purified mitochondria
# Procedure: Mitochondria were isolated from the following free-living nematode strains: C. elegans—N2, CB3474, ECA882, ECA917, ECA1075, ECA1080; C. briggsae—AF16; P. pacificus—PS312; and P. hermaphrodita—B178. With the exception of the P. hermaphrodita strain B178, adult worms of each strain were grown in bulk through liquid culture to obtain mitochondria in sufficient quantities. Due to poor growth in liquid media, mixed stage populations of P. hermaphrodita were washed off and collected from NGM plates seeded with OP50. The isolation of mitochondria from all free-living nematode strains followed the protocol previously outlined in Burns et al.[24]. In brief, a 1 L saturated culture of E. coli HB101 was concentrated 20-fold in 50 mL complete S-medium. ~500,000 L1 worms synchronized from an embryo preparation performed the day prior were added to the S-media/HB101 suspension and grown to adulthood over the course of 3.5 days at 20 °C with shaking at 165 rpm. Following growth, worms were collected in 10 ×15 mL conical tubes and washed 7 times in M9 buffer. Worm suspensions were then combined into a single 15 mL conical tube and diluted to a final volume of 15 mL with M9 buffer. 1 mL aliquots of worm suspension were then distributed to 15 × 1.5 mL screw-cap microcentrifuge tubes and were pelleted at 500 g for 1 min. Excess M9 was aspirated without disturbing the worm pellet. 600 μL ice-cold isolate buffer A (250 mM sucrose, 10 mM Tris (pH 7.5), 1 mM EDTA, 1 mM PMSF (freshly prepared)) and 300 μL cold glass beads were then added to each tube. Tubes were incubated on ice for 10 min, and the worms were then lysed by bead beating (6 x 30 s, with 1 min cooling intervals). Tubes containing worm lysate were centrifuged at 1,000 g for 10 min at 4 °C and the supernatant was transferred to 15 new microcentrifuge tubes on ice. The tubes were centrifuged a second time at 1,000 g for 10 min at 4 °C and the supernatant was once again transferred to 15 new microcentrifuge tubes on ice. These tubes were then centrifuged at 16,000 g for 10 min at 4 °C. The resulting mitochondrial pellet was washed twice by re-suspension in 300 μL of ice-cold isolate buffer B (250 mM sucrose, 10 mM Tris (pH 7.5), 1 mM EDTA). Following the final wash, isolation buffer was aspirated from each tube and the pellets were flash-frozen in ethanol/dry ice and stored at −80 °C until needed.
# The enzymatic activities of individual ETC complexes (I-IV) were assessed spectrophotometrically in isolated mitochondria using a Varioskan LUX Multimode plate reader (ThermoFisher Scientific). Mitochondrial pellets previously isolated were thawed on ice and resuspended in ice-cold isolation buffer (250 mM sucrose, 10 mM Tris (pH 7.5), 1 mM EDTA). The BCA assay (Walker, 1994) was used to quantify the protein concentration of mitochondria suspensions; solutions were diluted to a concentration of 0.2 mg/mL for use in all assays. For the complex I assay, mitochondria pellets were freeze-thawed on ice three times to increase enzyme accessibility. […] 20 μL mitochondria suspension was then added/mixed with a pipette to initiate the reaction. Immediately following the addition of mitochondria, absorbance was measured (complex I and II: 600 nm; complex III and IV: 550 nm) in 30 s intervals over 15 min. Enzymatic activity was determined in each reaction by plotting absorbance versus time and calculating the slope of the curve during the initial linear phase of the reaction. […] Percent activity of each complex was calculated by dividing the enzyme-specific activity of each well by the enzyme-specific activity of the corresponding solvent controls.
# Chemical solutions were prepared in complex I assay buffer composed of 25 mM KPi buffer (pH 7.5), 3 mg/mL bovine serum albumin (BSA), 80 μM NADH, 60 μM decylubiquinone, 160 μM DCIP, 2 μM antimycin A and 2 mM KCN. […]
# [2] = tested on: C. elegans; assay: C. elegans chemical screens of RIKEN NPD libraries at 50 μM (hit identification in KCN survival and development/viability assays); type: cell-based, Caenorhabditis elegans; details: screened at 50 μM in triplicate, KCN = KCN survival assay, Dev. & Viability = development/viability assay
# [3] = tested on: H. polygyrus; assay: In vivo efficacy study in H. polygyrus mouse model; set-up: species or system NMRI mice infected with H. polygyrus; details: for # Mice cured/ # Mice investigated: assessed 1 week after dosing; for Median # of living H. polygyrus worms: median (MAD) of adults collected from intestine; for Live worms in intestine (individual mouse) / Live worms in intestine, Median (+/- MAD): worm burden one week after dose; for Live worms in intestine (individual mouse): Mouse 1-4, 200 mg/kg; for Live worms in intestine, Median (+/- MAD): three to four mice
# Procedure: For in vivo testing, female 3-week old NMRI mice were purchased from Charles River, Germany. The mice were kept in individually ventilated cages (IVC) under environmentally controlled conditions (temperature: 22 °C ± 2 °C; relative humidity: 55% ± 15%; artificial lighting with a circadian cycle of 12 h of light) and had free access to water (municipal tap water supply) and rodent food. Rodents were allowed to acclimatize to the new environment for 1 week before infection. Upon 2 days of arrival, dexamethasone (0.25 mg/L) (Sigma-Aldrich, Switzerland) was added to the normal drinking water for immunosuppression to enable parasite establishment. After 1 week, mice were orally infected with 100 H. polygyrus third larval stage (L3) in 150 µL water.
# Four benzimidazole derivatives were tested for in vivo efficacy. The administration of dexamethasone was stopped after 12 days post-infection and 2 days later, the selected four benzimidazole derivatives were administered by oral gavage at a single dose of 200 mg/kg to groups of each four mice. Four mice were left untreated and served as a control group. The derivatives were prepared as a Tween80 (Sigma-Aldrich, Switzerland)/ethanol (Merck, Germany) mixture dissolved in tap water (7:3:90, v/v). After 6–7 days post-dosing, the mice were euthanized with CO2 and dissected. Adult worms were removed from the intestine and counted. The worm burden reduction was calculated by comparing the number of worms found in the control animals versus the treated animals.
# [4] = tested on: HEK293 cells; details: for HEK293 viability: individual replicate (Rep)
# [5] = single oral dose 200 mg/kg, vs untreated control mice
# [6] = single oral dose of 200 mg/kg, median worm counts versus control mice
compound,measurement,setting,value
Cc1nc2ccccc2n1Cc1ccc(Cl)cc1 [STK697993],in vitro complex I activity relative to solvent control,"[1]; 0.0001 µM, Mean",89.612%
same,in vitro complex I activity relative to solvent control,"[1]; 0.0001 µM, single replicate",93.319% and 105.139% and 70.379%
same,in vitro complex I activity relative to solvent control,"[1]; 0.0005 µM, Mean",95.634%
same,in vitro complex I activity relative to solvent control,"[1]; 0.0005 µM, single replicate",119.766% and 92.855% and 74.280%
same,in vitro complex I activity relative to solvent control,"[1]; 0.001 µM, Mean",90.469%
same,in vitro complex I activity relative to solvent control,"[1]; 0.001 µM, single replicate",96.266% and 129.304% and 45.836%
same,in vitro complex I activity relative to solvent control,"[1]; 0.0025 µM, Mean",83.278%
same,in vitro complex I activity relative to solvent control,"[1]; 0.0025 µM, single replicate",64.388% and 114.111% and 71.337%
same,in vitro complex I activity relative to solvent control,"[1]; 0.005 µM, Mean",110.209%
same,in vitro complex I activity relative to solvent control,"[1]; 0.005 µM, single replicate",99.329% and 145.962% and 85.335%
same,in vitro complex I activity relative to solvent control,"[1]; 0.013 µM, Mean",102.008%
same,in vitro complex I activity relative to solvent control,"[1]; 0.013 µM, single replicate",103.702% and 118.527% and 83.796%
same,in vitro complex I activity relative to solvent control,"[1]; 0.025 µM, Mean",81.894%
same,in vitro complex I activity relative to solvent control,"[1]; 0.025 µM, single replicate",82.152% and 107.849% and 55.682%
same,in vitro complex I activity relative to solvent control,"[1]; 0.063 µM, Mean",53.328%
same,in vitro complex I activity relative to solvent control,"[1]; 0.063 µM, single replicate",61.601% and 65.149% and 33.235%
same,in vitro complex I activity relative to solvent control,"[1]; 0.125 µM, Mean",31.057%
same,in vitro complex I activity relative to solvent control,"[1]; 0.125 µM, single replicate",37.073% and 51.097% and 5.000%
same,in vitro complex I activity relative to solvent control,"[1]; 0.313 µM, Mean",8.632%
same,in vitro complex I activity relative to solvent control,"[1]; 0.313 µM, single replicate",10.235% and 15.661% and 0.000%
same,in vitro complex I activity relative to solvent control,"[1]; 0.625 µM, Mean",5.779%
same,in vitro complex I activity relative to solvent control,"[1]; 0.625 µM, single replicate",0.000% and 9.493% and 7.843%
same,in vitro complex I activity relative to solvent control,"[1]; 1.5 µM, Mean",4.860%
same,in vitro complex I activity relative to solvent control,"[1]; 1.5 µM, single replicate",0.000% and 2.483% and 12.098%
same,in vitro complex I activity relative to solvent control,"[1]; 3 µM, Mean",2.448%
same,in vitro complex I activity relative to solvent control,"[1]; 3 µM, single replicate",0.000% and 7.344%
same,in vitro complex I activity relative to solvent control,"[1]; 15 µM, Mean",12.306%
same,in vitro complex I activity relative to solvent control,"[1]; 15 µM, single replicate",12.065% and 18.802% and 6.051%
same,in vitro complex I activity relative to solvent control,"[1]; 37.5 µM, Mean",7.732%
same,in vitro complex I activity relative to solvent control,"[1]; 37.5 µM, single replicate",0.065% and 16.547% and 6.585%
same,in vitro complex I activity relative to solvent control,"[1]; 75 µM, Mean",3.784%
same,in vitro complex I activity relative to solvent control,"[1]; 75 µM, single replicate",0.000% and 11.350%
same,IC50,[1],70.3 nM
COc1cc2c(cc1OC)C(c1ccc(-c3ccc(Cl)c(Cl)c3)o1)=NCC2 [NPD3577],Hit Type,[2]; […],KCN
COc1cc2c(cc1OC)C(/C=C/c1ccc(N(C)C)cc1)=NCC2 [NPD6303],Hit Type,[2]; […],KCN
COc1cc2c(cc1OC)C(C(C)c1ccc(CC(C)C)cc1)=NCC2 (stereo not drawn) [NPD10504],Hit Type,[2]; […],KCN
CCn1c(C(C)c2ccc(CC(C)C)cc2)nc2ccccc21 (stereo not drawn) [STK951902],# Mice cured/ # Mice investigated,[3]; single oral dose 200 mg/kg,0/4
same,% Worm burden reduction,[3]; [5],41.1%
same,Median # of living H. polygyrus worms,[3]; single oral dose 200 mg/kg,73.0 (1.5)
same,% Worm burden reduction,[3]; [6],41.1290%
same,Live worms in intestine (individual mouse),[3]; single oral dose of 200 mg/kg,73 and 52 and 76
same,"Live worms in intestine, Median (+/- MAD)",[3]; single oral dose of 200 mg/kg,73 (1.5)
CC(C)Cc1ccc(C(C)c2nc3ccccc3n2C)cc1 (stereo not drawn) [NPD8790],# Mice cured/ # Mice investigated,[3]; single oral dose 200 mg/kg,0/4
same,% Worm burden reduction,[3]; [5],23.0%
same,Median # of living H. polygyrus worms,[3]; single oral dose 200 mg/kg,95.5 (4.0)
same,% Worm burden reduction,[3]; [6],22.9839%
same,Live worms in intestine (individual mouse),[3]; single oral dose of 200 mg/kg,93 and 52 and 101 and 98
same,"Live worms in intestine, Median (+/- MAD)",[3]; single oral dose of 200 mg/kg,95.5 (4.0)
same,IC50,[1],1100 nM
same,Hit Type,[2]; […],KCN
same,toxicity against mammalian cells,[4]; HEK293 cells,low toxicity
Cc1ccccc1OCCCCn1cnc2ccccc21 [Compound 7732524],# Mice cured/ # Mice investigated,[3]; single oral dose 200 mg/kg,0/4
same,% Worm burden reduction,[3]; [5],24.6%
same,Median # of living H. polygyrus worms,[3]; single oral dose 200 mg/kg,93.5 (5.0)
same,% Worm burden reduction,[3]; [6],24.5968%
same,Live worms in intestine (individual mouse),[3]; single oral dose of 200 mg/kg,95 and 92 and 111 and 85
same,"Live worms in intestine, Median (+/- MAD)",[3]; single oral dose of 200 mg/kg,93.5 (5.0)
same,IC50,[1],68.7 nM
Clc1ccc(SCCCCn2cnc3ccccc32)cc1 [Compound 7925515],# Mice cured/ # Mice investigated,[3]; single oral dose 200 mg/kg,0/4
same,% Worm burden reduction,[3]; [5],19.4%
same,Median # of living H. polygyrus worms,[3]; single oral dose 200 mg/kg,100.0 (8.0)
same,% Worm burden reduction,[3]; [6],19.3548%
same,Live worms in intestine (individual mouse),[3]; single oral dose of 200 mg/kg,113 and 100 and 92
same,"Live worms in intestine, Median (+/- MAD)",[3]; single oral dose of 200 mg/kg,100 (8.0)
Cc1cc(O)c2c(c1)O[C@@]1(C)CC[C@H]3C(C)(C)CCC[C@]34CO[C@@H]2[C@H]41 [Siccanin],Hit Type,[2]; hit = modified z-score < −3,KCN
same,HEK293 viability,[4]; dose 0.4 µM,0.916
same,HEK293 viability,[4]; dose 0.8 µM,0.884
same,HEK293 viability,[4]; dose 3.1 µM,0.838 and 0.744
same,HEK293 viability,[4]; dose 6.3 µM,0.943 and 0.986
same,HEK293 viability,[4]; dose 12.5 µM,0.861 and 0.895 and 0.672
same,HEK293 viability,[4]; dose 25 µM,0.599 and 0.475 and 0.289
same,HEK293 viability,[4]; dose 50 µM,0.058 and 0.057

# Source: paper PMC11079024, “Identification of a family of species-selective complex I inhibitors as potential anthelmintics” (Nature Communications, 2024)
